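How tested: cells in 96-well plates exposed to compound for 48 hours at five concentrations. Here, GI50 denotes the concentration required for 50% inhibition of growth.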 Activity calls are given as the source filed them. Rule as the data show it: active = GI50 up to about 1.1 µM and inactive = higher.
Key:
Assay in all cases: NCI tumour cell line growth inhibition, 48 h
[1] = system: SF-295
[2] = system: MCF7
[3] = system: RXF 393
[4] = system: EKVX
[5] = system: MDA-N
[6] = system: UACC-62
[7] = system: HOP-62
[8] = system: SNB-75
[9] = system: LOX IMVI
[10] = system: SF-539
[11] = system: HL-60
[12] = system: ACHN
[13] = system: HCC 2998
[14] = system: MDA-MB-435
[15] = system: SNB-19
[16] = system: OVCAR-4
[17] = system: MDA-MB-231
[18] = system: NCI-H226
[19] = system: BT-549
[20] = system: NCI-H522

| Structure (SMILES) | GI50 [1] | GI50 [2] | GI50 [3] | GI50 [4] | GI50 [5] | GI50 [6] | GI50 [7] | GI50 [8] | GI50 [9] | GI50 [10] | GI50 [11] | GI50 [12] | GI50 [13] | GI50 [14] | GI50 [15] | GI50 [16] | GI50 [17] | GI50 [18] | GI50 [19] | GI50 [20] |
| --- | --- | --- | --- | --- | --- | --- | --- | --- | --- | --- | --- | --- | --- | --- | --- | --- | --- | --- | --- | --- |
| O=C1NCCCc2nonc21 | > 100 µM (inactive) | > 100 µM (inactive) | > 100 µM (inactive) | > 100 µM (inactive) | > 100 µM (inactive) | > 100 µM (inactive) | > 100 µM (inactive) | > 100 µM (inactive) | > 100 µM (inactive) | > 100 µM (inactive) | > 100 µM (inactive) | > 100 µM (inactive) | > 100 µM (inactive) | > 100 µM (inactive) | > 100 µM (inactive) | > 100 µM (inactive) | > 100 µM (inactive) | > 100 µM (inactive) | – | – |
| COc1ccc(/C=C2\CCC(C)c3c2nc(N)c(C#N)c3-c2ccc(OC)c(OC)c2)cc1OC (centres undefined) | 6 µM (inactive) | 5.65 µM (inactive) | 4.01 µM (inactive) | 1.36 µM (inactive) | 33.4 µM (inactive) | 88.1 µM (inactive) | 2.05 µM (inactive) | – | 66.4 µM (inactive) | 27.4 µM (inactive) | 5.08 µM (inactive) | 15.7 µM (inactive) | – | 10.8 µM (inactive) | 72.4 µM (inactive) | – | 9.89 µM (inactive) | 5.7 µM (inactive) | 8 µM (inactive) | – |
| O=C1CCCCC1=C(I)I | 24.8 µM (inactive) | – | 16.2 µM (inactive) | 1.88 µM (inactive) | 16.9 µM (inactive) | 17.1 µM (inactive) | 28.7 µM (inactive) | 18.5 µM (inactive) | – | 19.5 µM (inactive) | 4.49 µM (inactive) | 17.6 µM (inactive) | 15.8 µM (inactive) | 19.1 µM (inactive) | 12.1 µM (inactive) | 12.1 µM (inactive) | – | 19.7 µM (inactive) | 13 µM (inactive) | – |
| O=c1/c(=C/c2c(O)ccc3ccccc23)sc2nc3ccccc3n12 | > 100 µM (inactive) | – | > 100 µM (inactive) | > 100 µM (inactive) | – | > 100 µM (inactive) | > 100 µM (inactive) | > 100 µM (inactive) | > 100 µM (inactive) | > 100 µM (inactive) | > 100 µM (inactive) | > 100 µM (inactive) | > 100 µM (inactive) | – | > 100 µM (inactive) | > 100 µM (inactive) | – | > 100 µM (inactive) | – | > 100 µM (inactive) |
| Cc1nnc2sc(Cc3cnc(N)s3)nn12 | – | > 100 µM (inactive) | > 100 µM (inactive) | > 100 µM (inactive) | – | > 100 µM (inactive) | > 100 µM (inactive) | > 100 µM (inactive) | – | > 100 µM (inactive) | > 100 µM (inactive) | > 100 µM (inactive) | > 100 µM (inactive) | – | > 100 µM (inactive) | > 100 µM (inactive) | > 100 µM (inactive) | 77.6 µM (inactive) | – | > 100 µM (inactive) |
| O=C(CC(=O)N1N=C(N2c3ccccc3Sc3ccccc32)CC1c1ccccc1)Nc1ccccc1Cl (centres undefined) | > 100 µM (inactive) | – | > 100 µM (inactive) | > 100 µM (inactive) | – | > 100 µM (inactive) | > 100 µM (inactive) | > 100 µM (inactive) | – | > 100 µM (inactive) | > 100 µM (inactive) | > 100 µM (inactive) | > 100 µM (inactive) | > 100 µM (inactive) | > 100 µM (inactive) | > 100 µM (inactive) | > 100 µM (inactive) | > 100 µM (inactive) | > 100 µM (inactive) | > 100 µM (inactive) |
| O=C(Nc1ccc(C(F)(F)F)cc1[N+](=O)[O-])c1cccnc1 | 4.42 µM (inactive) | 2.22 µM (inactive) | – | 4.61 µM (inactive) | – | 3.76 µM (inactive) | 54.5 µM (inactive) | 3.72 µM (inactive) | 7.31 µM (inactive) | 3.37 µM (inactive) | 3.72 µM (inactive) | 7.01 µM (inactive) | > 100 µM (inactive) | 0.537 µM (active) | 9.48 µM (inactive) | 4.43 µM (inactive) | 17.4 µM (inactive) | 22.8 µM (inactive) | 7.06 µM (inactive) | 3.94 µM (inactive) |
| N#Cc1sc2c(c1OC(=O)c1ccc(C(F)(F)F)cc1)c(=O)n(-c1ccccc1)c(=S)n2-c1ccccc1 | 25.6 µM (inactive) | 30.1 µM (inactive) | 14.8 µM (inactive) | 24.9 µM (inactive) | 29.5 µM (inactive) | 22.4 µM (inactive) | 31.1 µM (inactive) | 27.4 µM (inactive) | 24.5 µM (inactive) | 25.2 µM (inactive) | 21 µM (inactive) | 26.2 µM (inactive) | 34.4 µM (inactive) | 26.5 µM (inactive) | 34 µM (inactive) | 33.8 µM (inactive) | 31.3 µM (inactive) | 29.8 µM (inactive) | – | 0.107 µM (active) |

Reference: ChEMBL document CHEMBL1201862, “PubChem BioAssay data set” (2004)
